From patent US20250059074A1, “ANTIMICROBIAL SYSTEM AND METHOD” (KEMIRA OYJ, priority 2021, published 2025)

Tested on: Pseudoxanthomonas taiwanensis biofilm
Assay: Biofilm test in 96-microwell plates with peg lids, Crystal Violet quantification
Type: cell-based
Conditions: for Impact (biofilm reduction percentage vs no added chemicals): 45° C., 150 rpm
Text: Authentic cooling water was obtained from a cooling water system in Germany. Proteobacteria are commonly found from cooling waters (Water Research 159 (2019): 464-479). In the biofilm-experiments the test water was spiked with Pseudoxanthomonas taiwanensis, a biofilm-forming species belonging to the phylum Proteobacter. Biofilm tests were done in simulated cooling water, SCW (prepared according to Marziya Rizvi et al., Nature Scientific Reports | (2021) 11:8353) using 96-microwell plate wells with peg lids (Thermo Fischer Scientific Inc., USA). Plates were incubated at 45° C. with a rotary shaking (150 rpm) providing high flow in each well. Wells of 96-microwell plates with peg-lids were filled with 10% authentic cooling water, 89% SCW and 1% of pure culture of Pseudoxanthomonas taiwanensis. Biofilm was grown at 45° C. with a rotary shaking (150 rpm) for 24 hours without addition of any chemical compound to be tested. After 24 hours from starting the test, the wells were emptied and a fresh solution comprising 10% authentic cooling water, 89% SCW and 1% of pure culture of Pseudoxanthomonas taiwanensis with different amounts of chemical compounds to be tested were added and the original peg-lid was placed back in place. After an additional 24 hours the wells were emptied and the biofilm amount on the pegs was quantified. The amount of biofilm formed on the peg surfaces was quantified with a staining solution by adding 200 μl of 1% Crystal Violet (Merck Millipore KGaA, Germany) in methanol to each well in a clean 96-well plate and placing the biofilm-containing peg-lid on it. After 3 minutes the wells were emptied and the wells and pegs were rinsed 3 times with tap water. Finally the peg-lid was placed in a clean 96-well plate, the attached Crystal Violet was dissolved into ethanol and the absorbance at 595 nm was measured. All parts per million (ppm) amounts given in Example 1 are as active ingredients. The Impact values are calculated as biofilm reduction percentages based on a comparison with no added chemicals. A positive value indicates a reduction in amount of biofilm whereas a negative value indicates an increase in the amount of biofilm. […] Biofilm was stained and quantified by absorbance measurement. Dosages are given as active ingredients.

SMILES | Impact (biofilm reduction percentage vs no added chemicals) (Compound A 0.15 ppm alone, 24 h, negative = increase) [%] | Impact (biofilm reduction percentage vs no added chemicals) (Compound A 0.30 ppm alone, 24 h) [%] | Impact (biofilm reduction percentage vs no added chemicals) (Compound A 0.45 ppm alone, 24 h) [%] | Impact (biofilm reduction percentage vs no added chemicals) (Sodium hypochlorite 2 ppm alone, authentic cooling water+SCW+P. taiwanensis, 24 h on pre-grown biofilm, negative = increase) [%] | Impact (biofilm reduction percentage vs no added chemicals) (Sodium hypochlorite 4 ppm alone, 24 h, negative = increase) [%] | Impact (biofilm reduction percentage vs no added chemicals) (Sodium hypochlorite 8 ppm alone, 24 h, negative = increase) [%] | Impact (biofilm reduction percentage vs no added chemicals) (Sodium hypochlorite 12 ppm alone, 24 h, negative = increase) [%] | Impact (biofilm reduction percentage vs no added chemicals) (Sodium hypochlorite 16 ppm alone, 24 h) [%] | Dosage required to reach noticeable biofilm reduction efficacy (Sodium hypochlorite on its own, as active compound) [ppm]
Cc1ccc(S(=O)(=O)C=CC#N)cc1 [Compound A, 3-[(4-methylphenyl)sulphonyl]-2-propenenitrile] | −19 | 2 | 8 | – | – | – | – | – | –
OCl [Sodium hypochlorite] | – | – | – | −30 | −27 | −25 | −10 | 6 | 16
